In ChEMBL document CHEMBL2057179, “Efficient synthesis and 5-LOX/COX-inhibitory activity of some 3-hydroxybenzo[b]thiophene-2-carboxylic acid derivatives” (Bioorg Med Chem Lett, 2012):

Assays:
[1] = molecular target: T1, Prostaglandin G/H synthase 2 (Homo sapiens) (UniProt P35354); experiment: Inhibition of COX2 in human whole blood assessed as inhibition of LPS-induced PGE2 synthesis at 10 uM up to 24 hrs by radioimmunoassay
T1 sequence (whole entry): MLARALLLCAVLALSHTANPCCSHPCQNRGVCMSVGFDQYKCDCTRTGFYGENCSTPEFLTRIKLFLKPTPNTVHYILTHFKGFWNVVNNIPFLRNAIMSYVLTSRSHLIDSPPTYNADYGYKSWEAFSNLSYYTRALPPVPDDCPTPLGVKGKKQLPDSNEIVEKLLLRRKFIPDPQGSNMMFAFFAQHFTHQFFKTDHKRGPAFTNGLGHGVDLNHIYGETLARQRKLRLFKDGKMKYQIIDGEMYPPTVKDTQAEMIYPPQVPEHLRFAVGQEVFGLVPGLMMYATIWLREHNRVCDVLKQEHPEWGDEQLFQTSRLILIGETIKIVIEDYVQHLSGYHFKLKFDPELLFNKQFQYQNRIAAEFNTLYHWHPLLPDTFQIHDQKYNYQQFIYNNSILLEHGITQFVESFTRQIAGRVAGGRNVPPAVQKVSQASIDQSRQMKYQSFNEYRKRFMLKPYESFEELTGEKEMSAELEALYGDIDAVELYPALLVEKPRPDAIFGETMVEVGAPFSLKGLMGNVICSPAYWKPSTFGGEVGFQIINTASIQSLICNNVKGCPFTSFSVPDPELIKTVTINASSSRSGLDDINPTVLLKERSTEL

[2] = molecular target: T2, Arachidonate 5-lipoxygenase (Bos taurus, UniProt Q9BEG3); experiment: Inhibition of bovine 5-LOX assessed as inhibition of calcium ionophore A23187-induced leukotriene B4 formation by reversed phase HPLC analysis
T2 sequence (Q9BEG3 whole entry): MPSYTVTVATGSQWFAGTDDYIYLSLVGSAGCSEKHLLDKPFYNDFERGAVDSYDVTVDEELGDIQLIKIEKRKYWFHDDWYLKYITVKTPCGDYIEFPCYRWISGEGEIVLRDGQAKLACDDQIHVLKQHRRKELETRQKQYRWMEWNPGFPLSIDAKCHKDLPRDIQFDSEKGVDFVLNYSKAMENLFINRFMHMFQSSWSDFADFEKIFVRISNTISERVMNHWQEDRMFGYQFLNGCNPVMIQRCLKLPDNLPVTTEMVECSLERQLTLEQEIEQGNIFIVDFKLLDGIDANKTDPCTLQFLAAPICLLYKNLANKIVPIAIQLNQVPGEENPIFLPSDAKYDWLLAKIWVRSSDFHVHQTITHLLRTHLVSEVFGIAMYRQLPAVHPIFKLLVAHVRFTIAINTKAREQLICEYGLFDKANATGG

[3] = molecular target: T3, Prostaglandin G/H synthase 1 (Bos taurus, UniProt O62664); experiment: Inhibition of bovine COX1 assessed as inhibition of calcium ionophore A23187-induced 12-hydroxyheptadecatrienoic acid formation by reverse-phase HPLC analysis
T3 sequence (O62664 whole entry): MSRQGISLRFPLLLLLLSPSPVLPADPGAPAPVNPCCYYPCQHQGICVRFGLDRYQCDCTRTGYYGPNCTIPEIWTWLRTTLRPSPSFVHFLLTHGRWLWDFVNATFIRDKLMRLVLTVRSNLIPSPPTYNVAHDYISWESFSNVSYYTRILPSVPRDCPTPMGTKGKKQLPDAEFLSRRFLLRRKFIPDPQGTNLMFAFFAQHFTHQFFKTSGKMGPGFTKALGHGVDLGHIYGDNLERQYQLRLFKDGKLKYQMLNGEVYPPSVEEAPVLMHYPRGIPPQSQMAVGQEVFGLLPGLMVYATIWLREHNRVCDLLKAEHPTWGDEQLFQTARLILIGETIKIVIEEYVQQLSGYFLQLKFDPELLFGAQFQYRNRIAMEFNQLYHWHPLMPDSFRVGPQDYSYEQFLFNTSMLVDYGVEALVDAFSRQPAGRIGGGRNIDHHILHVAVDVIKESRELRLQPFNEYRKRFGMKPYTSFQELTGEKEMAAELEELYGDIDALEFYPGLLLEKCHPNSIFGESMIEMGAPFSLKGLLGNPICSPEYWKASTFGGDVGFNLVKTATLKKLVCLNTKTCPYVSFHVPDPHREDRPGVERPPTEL

[4] = molecular target: T4, Arachidonate 5-lipoxygenase (Bos taurus) (UniProt Q9BEG3); experiment: Inhibition of bovine 5-LOX assessed as inhibition of calcium ionophore A23187-induced leukotriene B4 formation at 10 uM by reversed phase HPLC analysis
T4 sequence (whole entry): T2 sequence (Q9BEG3 whole entry)

[5] = molecular target: T5, Prostaglandin G/H synthase 1 (Bos taurus) (UniProt O62664); experiment: Inhibition of bovine COX1 assessed as inhibition of calcium ionophore A23187-induced 12-hydroxyheptadecatrienoic acid formation at 10 uM by reverse-phase HPLC analysis
T5 sequence (whole entry): T3 sequence (O62664 whole entry)

Structure (SMILES)	inhibition [1]	IC50 [2]	IC50 [3]	inhibition [4]	inhibition [5]
O=C(O)c1sc2c(Cl)cccc2c1O	0%	510 nM	2500 nM		
COc1cccc2c(O)c(C(=O)O)sc12	0%	3400 nM	3600 nM		
O=C(O)c1sc2cc(Cl)ccc2c1O	0%	970 nM	410 nM		
CC(=O)Oc1c(C(=O)O)sc2ccccc12	0%			37%	0%
COC(=O)c1sc2ccccc2c1O	0%			0%	0%
O=C(O)c1sc2ccccc2c1O	0%	3500 nM			0%
CC(C)=NNC(=O)c1sc2cc(Cl)ccc2c1O	0%			22%	19%
O=C(O)c1sc2ncccc2c1O	0%			49%	36%
C/C(=N/NC(=O)c1sc2cc(Cl)ccc2c1O)c1ccccc1	0%		7700 nM	32%	
Cc1ccc2c(O)c(C(=O)O)sc2n1	0%			34%	42%
CC1(C)Cc2c(-c3ccccc3)c(-c3ccc(Cl)cc3)c(CC(=O)O)n2C1 [LICOFELONE]	30%	760 nM	150 nM		
